Reference: ChEMBL document CHEMBL6115007, “Synthesis and in vitro and in vivo evaluation of novel bivalent quinolines as antitumor agents via targeting autophagy in cervical cancer” (Eur J Med Chem, 2025)
Activity calls are given as the source filed them. No cut-off for these calls is given here.

Experiments:
HeLa [1] = experiment: Upregulation of autophagy pathway related gene expression in human HeLa cells at 1.2 uM incubated for 24 hrs by GSVA enrichment analysis; assay type: functional, cell-based
HeLa [2] = experiment: Inhibition of colony formation in human HeLa cells assessed as reduction in colony forming unit count at 0.15 to 0.6 uM incubated for 24 hrs by crystal violet staining based analysis; assay type: functional, cell-based; conditions: dose 0.15-0.6 µM
HeLa [3] = experiment: Induction of apoptosis in human HeLa cells assessed as necrotic cells at 0.6 uM incubated for 24 hrs by Annexin V-FITC/PI staining based flow cytometric analysis (reference value: 1.88 %); assay type: functional
Ca-Ski [4] = experiment: Induction of apoptosis in human Ca Ski cells assessed as necrotic cells at 1 uM preincubated with Z-VAD-FMK for 1 hrs followed by compound addition and measured after 24 hrs by Annexin V-FITC/PI staining based flow cytometric analysis (reference value: 1.54 %); assay type: functional
HeLa [5] = experiment: Induction of autophagy in ATG5 deficient human HeLa cells assessed as increase in LC3-II expression at 0.6 to 1.2 uM incubated for 24 hrs by Western blot analysis; assay type: functional, cell-based; conditions: dose 0.6-1.2 µM
C-33-A [6] = experiment: Inhibition of colony formation in human C-33-A cells assessed as reduction in colony forming unit count at 0.05 to 0.2 uM incubated for 24 hrs by crystal violet staining based analysis; assay type: functional, cell-based; conditions: dose 0.05-0.2 µM
C-33-A [7] = experiment: Induction of morphological changes in human C-33-A cells assessed as decrease in cell adherence to culture dish at 0.3 to 1.2 uM by microphotographic analysis; assay type: functional, cell-based; conditions: dose 0.3-1.2 µM
HeLa [8] = experiment: Induction of apoptosis in human HeLa cells assessed as early apoptotic cells at 0.6 uM preincubated with Z-VAD-FMK for 1 hrs followed by compound addition and measured after 24 hrs by Annexin V-FITC/PI staining based flow cytometric analysis (reference value: 0.96 %); assay type: functional
[9] = Toxicity in female BALB/c mouse xenografted with human HeLa cells assessed as effect on platelet level at 4 to 8 mg/kg administered every four days and measured after 26 days; assay type: organism-based; conditions: in vivo, 624 h, dose 4-8 mg/kg, time 26 day
HeLa [10] = experiment: Effect on ferroptosis pathway related gene expression in human HeLa cells at 1.2 uM incubated for 24 hrs by GSVA enrichment analysis; assay type: functional, cell-based
Ca-Ski [11] = experiment: Induction of autophagy in human Ca Ski cells transfected with mRFP-GFP-LC3 plasmid assessed as stable RFP fluorescence at 25 uM incubated for 24 hrs by DAPI staining based fluorescence confocal microscopic analysis; assay type: functional, cell-based
Ca-Ski [12] = experiment: Induction of apoptosis in human Ca Ski cells assessed as necrotic cells at 0.5 uM preincubated with Z-VAD-FMK for 1 hrs followed by compound addition and measured after 24 hrs by Annexin V-FITC/PI staining based flow cytometric analysis (reference value: 1.54 %); assay type: functional
Ca-Ski [13] = experiment: Induction of apoptosis in human Ca Ski cells assessed as late apoptotic cells at 0.5 uM preincubated with Z-VAD-FMK for 1 hrs followed by compound addition and measured after 24 hrs by Annexin V-FITC/PI staining based flow cytometric analysis (reference value: 5.30 %); assay type: functional
Ca-Ski [14] = experiment: Effect on PARP expression level in Bax deficient human Ca Ski cells at 0.5 to 1 uM incubated for 24 hrs by Western blot analysis; assay type: functional, cell-based; conditions: dose 0.5-1 µM
Ca-Ski [15] = experiment: Induction of autophagy in human Ca Ski cells transfected with mRFP-GFP-LC3 plasmid assessed as decrease in GFP fluorescence at 25 uM incubated for 24 hrs by DAPI staining based fluorescence confocal microscopic analysis; assay type: functional, cell-based
Ca-Ski [16] = experiment: Effect on caspase 3 expression level in Bax deficient human Ca Ski cells at 0.5 to 1 uM incubated for 24 hrs by Western blot analysis; assay type: functional, cell-based; conditions: dose 0.5-1 µM
HeLa [17] = experiment: Antitumor activity against human HeLa cells xenografted in female BALB/c mouse assessed as reduction in Ki67 expression in tumor at 4 to 8 mg/kg administered every four days and measured after 26 days by immunohistochemical analysis; assay type: functional, organism-based; conditions: dose 4-8 mg/kg, time 26.0 day
HeLa [18] = experiment: Induction of autophagolysosome formation in human HeLa cells transfected with mRFP-GFP-LC3 plasmid assessed as increase in ratio of mRFP to GFP puncta at 0.4 to 0.8 uM incubated for 24 hrs; assay type: functional, cell-based; conditions: dose 0.4-0.8 µM

## COc1cccc(Nc2ccnc3cc(OCCCCCOc4ccc5c(Nc6cccc(OC)c6)ccnc5c4)ccc23)c1
HeLa [1]
  Activity: Active
HeLa [2]
  inhibition: Active
HeLa [3]
  Activity: 2.66%
Ca-Ski [4]
  Activity: 1.7%
HeLa [5]
  Activity: inactive
C-33-A [6]
  inhibition: Active
C-33-A [7]
  Activity: Active
HeLa [8]
  Activity: 1.31%
[9]
  Activity: Non-toxic
HeLa [10]
  Activity: Minimal_effect
Ca-Ski [11]
  Activity: Active
Ca-Ski [12]
  Activity: 1.4%
Ca-Ski [13]
  Activity: 17.3%
Ca-Ski [14]
  Activity: inactive
Ca-Ski [15]
  Activity: Active
Ca-Ski [16]
  Activity: inactive
HeLa [17]
  Activity: Active
HeLa [18]
  Activity: Active
